Assay [1] has as its target T1, Cbl-b (Homo sapiens, UniProt Q13191).
T1 construct: biotin (biotinylated)
Kind of assay: Cbl-b probe displacement HTRF binding assay. To be noted: 0.4 nM biotinylated Cbl-b, 150 nM BODIPY probe. The method in brief:
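Biotinylated Cbl-b was preincubated with compound for 60 min at room temperature in HEPES/NaCl/Triton/TCEP/BSA buffer. BODIPY probe was added for 15 min, followed by streptavidin-terbium, and the HTRF signal was read. Displacement was normalised to DMSO and no-protein controls, and affinity was obtained from a four-parameter dose-response fit.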

Assay [2] relates to Jurkat cells. Kind of assay: IL-2 secretion assay in CD3/CD28-activated Jurkat cells (AlphaLISA). In kind it is cell-based. To be noted: Homo sapiens, CD3/CD28 T Cell Activator, 24 h, IL-2 AlphaLISA. The method in brief: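 Jurkat cells (50,000/well) were preincubated 1 h at 37° C with compound in a 16-point 1:2 series spanning 10 μM to 300 pM final. Cells were then activated with CD3/CD28 T cell activator, and secreted IL-2 was read by AlphaLISA. EC50 came from 4-parameter logistic fits.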
(In general: In Alpha technology, singlet oxygen from a donor bead excites a nearby acceptor bead.)

T1 sequence (Q13191 whole entry, species assumed): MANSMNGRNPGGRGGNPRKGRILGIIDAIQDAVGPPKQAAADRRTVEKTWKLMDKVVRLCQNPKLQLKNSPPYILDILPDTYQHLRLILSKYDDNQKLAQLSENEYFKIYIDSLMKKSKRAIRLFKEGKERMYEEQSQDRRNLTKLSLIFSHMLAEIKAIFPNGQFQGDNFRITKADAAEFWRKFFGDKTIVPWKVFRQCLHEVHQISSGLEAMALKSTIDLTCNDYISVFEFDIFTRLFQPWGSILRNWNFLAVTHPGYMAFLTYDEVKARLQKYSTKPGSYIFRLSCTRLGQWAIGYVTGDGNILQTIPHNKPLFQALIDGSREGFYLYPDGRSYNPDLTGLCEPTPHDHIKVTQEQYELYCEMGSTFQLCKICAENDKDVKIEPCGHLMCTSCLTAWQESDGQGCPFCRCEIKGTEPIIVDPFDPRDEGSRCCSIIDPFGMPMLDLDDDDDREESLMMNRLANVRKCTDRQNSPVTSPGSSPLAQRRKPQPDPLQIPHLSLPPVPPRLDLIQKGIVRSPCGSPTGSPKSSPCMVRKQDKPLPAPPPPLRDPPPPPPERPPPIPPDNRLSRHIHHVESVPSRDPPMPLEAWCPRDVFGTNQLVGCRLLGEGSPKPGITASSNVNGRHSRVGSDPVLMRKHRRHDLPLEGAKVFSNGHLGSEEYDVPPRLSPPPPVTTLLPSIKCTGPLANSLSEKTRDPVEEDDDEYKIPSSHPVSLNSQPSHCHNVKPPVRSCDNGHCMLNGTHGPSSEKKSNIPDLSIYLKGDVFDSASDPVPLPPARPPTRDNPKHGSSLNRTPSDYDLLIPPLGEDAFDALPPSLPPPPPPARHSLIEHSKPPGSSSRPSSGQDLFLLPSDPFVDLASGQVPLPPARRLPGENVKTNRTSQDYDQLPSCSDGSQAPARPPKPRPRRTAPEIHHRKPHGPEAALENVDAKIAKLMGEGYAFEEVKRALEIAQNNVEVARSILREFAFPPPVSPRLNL

Usually IC50 stands for the point on the concentration scale where inhibition reaches its midpoint. A higher IC50 goes with lower potency. As a reminder, the EC50 is the concentration at which the effect is half-maximal. Read a low EC50 as a more potent agent. In the case of `C[C@@H]1CN(Cc2cc3c(C4CC4)cn(-c4cccc(C5(c6nncn6C)CC(F)(F)C5)c4)c(=O)c3[nH]2)CCO1` [Example 94, 4-cyclopropyl-6-[3-[3,3-difluoro-1-(4-methyl-1,2,4-triazol-3-yl)cyclobutyl]phenyl]-2-[[(2R)-2-methylmorpholin-4-yl]methyl]-1H-pyrrolo[2,3-c]pyridin-7-one], the IC50 in assay [1] was below 0.1 µM. In assay [2], this compound displayed an EC50 below 0.1 µM.

For the compound `C[C@H]1CCCN(Cc2cc3c(C4CC4)cn(-c4cccc([C@]5(c6nncn6C)C[C@H](OC(F)F)C5)c4)c(=O)c3[nH]2)C1` [Example 95, trans-4-cyclopropyl-6-[3-[3-(difluoromethoxy)-1-(4-methyl-1,2,4-triazol-3-yl)cyclobutyl]phenyl]-2-[[(3S)-3-methylpiperidin-1-yl]methyl]-1H-pyrrolo[2,3-c]pyridin-7-one], the IC50 in assay [1] was below 0.1 µM. This compound came in with an EC50 in assay [2] below 0.1 µM.

In the case of `C[C@H]1CCCN(Cc2cc3c(C4CC4)cn(-c4cccc([C@]5(c6nncn6C)C[C@@H](OC(F)F)C5)c4)c(=O)c3[nH]2)C1` [Example 96, cis-4-cyclopropyl-6-[3-[3-(difluoromethoxy)-1-(4-methyl-1,2,4-triazol-3-yl)cyclobutyl]phenyl]-2-[[(3S)-3-methylpiperidin-1-yl]methyl]-1H-pyrrolo[2,3-c]pyridin-7-one], the IC50 in assay [1] was below 0.1 µM. Moreover, the EC50 in assay [2] was below 0.1 µM.

`C[C@H]1CCCN(Cc2cc3c(C4CC4)cn(-c4cccc([C@]5(c6nccn6C)C[C@H](OC(F)F)C5)c4)c(=O)c3[nH]2)C1` [Example 97, 4-cyclopropyl-6-[3-[3-(difluoromethoxy)-1-(1-methylimidazol-2-yl)cyclobutyl]phenyl]-2-[[(3S)-3-methylpiperidin-1-yl]methyl]-1H-pyrrolo[2,3-c]pyridin-7-one] returned an IC50 in assay [1] below 0.1 µM. In assay [2], this compound registered an EC50 of 0.1 to 1 µM.

In the case of `CCO[C@H]1C[C@](c2cccc(-n3cc(C4CC4)c4cc(CN5CCC[C@H](C)C5)[nH]c4c3=O)c2)(c2nncn2C)C1` [Example 98, trans-4-cyclopropyl-6-[3-[3-ethoxy-1-(4-methyl-1,2,4-triazol-3-yl)cyclobutyl]phenyl]-2-[[(3S)-3-methylpiperidin-1-yl]methyl]-1H-pyrrolo[2,3-c]pyridin-7-one], the IC50 in assay [1] was below 0.1 µM. In assay [2], the concentration for a half-maximal effect (EC50) was below 0.1 µM.

On to `CO[C@H]1C[C@](c2cccc(-n3cc(C4CC4)c4cc(CN5CCC6(CC6)C5)[nH]c4c3=O)c2)(c2nncn2C)C1` [Example 100], for which, in assay [1], the IC50 is below 0.1 µM. In assay [2], this compound returned an EC50 of 0.1 to 1 µM.

The compound `CO[C@H]1C[C@](c2cccc(-n3cc(C4CC4)c4cc(CN5CCC[C@H](C)C5)[nH]c4c3=O)c2)(c2nncn2C)C1` [Example 101, trans-4-cyclopropyl-6-[3-[3-methoxy-1-(4-methyl-1,2,4-triazol-3-yl)cyclobutyl]phenyl]-2-[[(3S)-3-methylpiperidin-1-yl]methyl]-1H-pyrrolo[2,3-c]pyridin-7-one] registered an IC50 in assay [1] below 0.1 µM. The concentration for a half-maximal effect (EC50) in assay [2] was below 0.1 µM.

The compound `CO[C@H]1C[C@@](c2cccc(-n3cc(C4CC4)c4cc(CN5CCC[C@H](C)C5)[nH]c4c3=O)c2)(c2nncn2C)C1` [Example 102, cis-4-cyclopropyl-6-[3-[3-methoxy-1-(4-methyl-1,2,4-triazol-3-yl)cyclobutyl]phenyl]-2-[[(3S)-3-methylpiperidin-1-yl]methyl]-1H-pyrrolo[2,3-c]pyridin-7-one] came in with an IC50 in assay [1] below 0.1 µM. This compound returned an EC50 in assay [2] below 0.1 µM.

As to `COC1CC(c2cccc(-n3cc(C4CC4)c4cc(CN5CCO[C@H](C)C5)[nH]c4c3=O)c2)(c2nncn2C)C1` (stereo partly drawn) [Example 103, 4-cyclopropyl-6-[3-[3-methoxy-1-(4-methyl-1,2,4-triazol-3-yl)cyclobutyl]phenyl]-2-[[(2R)-2-methylmorpholin-4-yl]methyl]-1H-pyrrolo[2,3-c]pyridin-7-one], the IC50 in assay [1] was below 0.1 µM. The same compound registered an EC50 in assay [2] of 0.1 to 1 µM.

As for `C[C@H]1CCCN(Cc2cc3c(C(F)(F)F)cn(-c4cccc(C5(c6nncn6C)CC6(CC6)C5)c4)c(=O)c3[nH]2)C1` [Example 105], the IC50 in assay [1] is below 0.1 µM. For the same compound, the EC50 in assay [2] was below 0.1 µM.

Compound `C[C@H]1CCCN(Cc2nc3c(C4CC4)cn(-c4cccc([C@]5(c6nncn6C)C[C@H](C)C5)c4)c(=O)c3[nH]2)C1` [Example 109, 7-cyclopropyl-5-[3-[3-methyl-1-(4-methyl-1,2,4-triazol-3-yl)cyclobutyl]phenyl]-2-[[(3S)-3-methylpiperidin-1-yl]methyl]-3H-imidazo[4,5-c]pyridin-4-one] registered a half-maximal inhibitory concentration (IC50) in assay [1] below 0.1 µM. Also, in assay [2], the EC50 was below 0.1 µM.

Regarding `C[C@@H]1CN(Cc2nc3c(C4CC4)cn(-c4cccc([C@]5(c6nncn6C)C[C@H](C)C5)c4)c(=O)c3[nH]2)CCO1` [Example 110, 7-cyclopropyl-5-[3-[3-methyl-1-(4-methyl-1,2,4-triazol-3-yl)cyclobutyl]phenyl]-2-[[(2R)-2-methylmorpholin-4-yl]methyl]-3H-imidazo[4,5-c]pyridin-4-one], the IC50 in assay [1] is below 0.1 µM. The compound further yielded an EC50 in assay [2] of 0.1 to 1 µM.

Turning to `C[C@H]1CCCN(Cc2nc3c(C4CC4)cn(-c4cccc(C5(c6nncn6C)CC6(CC6)C5)c4)c(=O)c3[nH]2)C1` [Example 111, 7-cyclopropyl-2-[[(3S)-3-methylpiperidin-1-yl]methyl]-5-[3-[5-(4-methyl-1,2,4-triazol-3-yl)spiro[2.3]hexan-5-yl]phenyl]-3H-imidazo[4,5-c]pyridin-4-one], the 50% inhibitory concentration (IC50) in assay [1] was below 0.1 µM. The same compound showed an EC50 in assay [2] below 0.1 µM.

In assay [1], `C[C@H]1CCCN(Cc2nc3c(C4CC4)cn(-c4cccc(C5(c6nncn6C)CC(F)(F)C5)c4)c(=O)c3[nH]2)C1` [Example 112, 7-cyclopropyl-5-[3-[3,3-difluoro-1-(4-methyl-1,2,4-triazol-3-yl)cyclobutyl]phenyl]-2-[[(3S)-3-methylpiperidin-1-yl]methyl]-3H-imidazo[4,5-c]pyridin-4-one] came in with an IC50 below 0.1 µM. Also, the concentration for a half-maximal effect (EC50) in assay [2] is below 0.1 µM.

Turning to `C[C@H]1CCCN(Cc2nc3c(C(F)(F)F)cn(-c4cccc(C5(c6nncn6C)CC(F)(F)C5)c4)c(=O)c3[nH]2)C1` [Example 113, 5-[3-[3,3-difluoro-1-(4-methyl-1,2,4-triazol-3-yl)cyclobutyl]phenyl]-2-[[(3S)-3-methylpiperidin-1-yl]methyl]-7-(trifluoromethyl)-3H-imidazo[4,5-c]pyridin-4-one], in assay [1], the IC50 was below 0.1 µM. The compound also showed an EC50 in assay [2] below 0.1 µM.

In assay [1], `C[C@@H]1CN(Cc2nc3c(C(F)(F)F)cn(-c4cccc(C5(c6nncn6C)CC(F)(F)C5)c4)c(=O)c3[nH]2)CCO1` [Example 114, 5-[3-[3,3-difluoro-1-(4-methyl-1,2,4-triazol-3-yl)cyclobutyl]phenyl]-2-[[(2R)-2-methylmorpholin-4-yl]methyl]-7-(trifluoromethyl)-3H-imidazo[4,5-c]pyridin-4-one] came in with an IC50 of 0.1 to 1 µM. In assay [2], the 50% effective concentration (EC50) was above 5 µM.

For the compound `Cn1cnnc1C1(c2cccc(-n3cc(C(F)(F)F)c4nc(CN5CCC(F)(F)C5)[nH]c4c3=O)c2)CC(F)(F)C1` [Example 115, 5-[3-[3,3-difluoro-1-(4-methyl-1,2,4-triazol-3-yl)cyclobutyl]phenyl]-2-[(3,3-difluoropyrrolidin-1-yl)methyl]-7-(trifluoromethyl)-3H-imidazo[4,5-c]pyridin-4-one], the half-inhibitory concentration (IC50) in assay [1] fell in the range of 1 to 5 µM. Besides, the EC50 in assay [2] was above 5 µM.

On to `C[C@H]1CCCN(Cc2cc3ncn(-c4cccc(C5(c6nncn6C)CC(F)(F)C5)c4)c(=O)c3[nH]2)C1` [Example 120, 3-{3-[3,3-Difluoro-1-(4-methyl-4H-1,2,4-triazol-3-yl)cyclobutyl]phenyl}-6-{[(3S)-3-methylpiperidin-1-yl]methyl}-3H,4H,5H-pyrrolo[3,2-d]pyrimidin-4-one], for which the IC50 in assay [1] was below 0.1 µM. Moreover, the EC50 in assay [2] is 0.1 to 1 µM.

In assay [1], `C[C@H]1CCCN(Cc2cc3c(C4CC4)cn(-c4cccc(C5(c6nnco6)CC(F)(F)C5)c4)c(=O)c3[nH]2)C1` [Example 121, 4-cyclopropyl-6-[3-[3,3-difluoro-1-(1,3,4-oxadiazol-2-yl)cyclobutyl]phenyl]-2-[[(3S)-3-methylpiperidin-1-yl]methyl]-1H-pyrrolo[2,3-c]pyridin-7-one] showed an IC50 of 0.1 to 1 µM. Further, in assay [2], the EC50 lay within 0.1 to 1 µM.

`C[C@H]1CCCN(Cc2cc3c(C4CC4)cn(-c4cccc(C5(Cn6nccn6)CC(F)(F)C5)c4)c(=O)c3[nH]2)C1` [Example 122, 4-cyclopropyl-6-[3-[3,3-difluoro-1-(triazol-2-ylmethyl)cyclobutyl]phenyl]-2-[[(3S)-3-methylpiperidin-1-yl]methyl]-1H-pyrrolo[2,3-c]pyridin-7-one]: the 50% inhibitory concentration (IC50) in assay [1] is 0.1 to 1 µM. In assay [2], this compound yielded an EC50 of 0.1 to 1 µM.

In assay [1], `C[C@H]1CCCN(Cc2cc3c(C4CC4)cn(-c4cccc(C5(Cn6ccnn6)CC(F)(F)C5)c4)c(=O)c3[nH]2)C1` [Example 123, 4-cyclopropyl-6-[3-[3,3-difluoro-1-(triazol-1-ylmethyl)cyclobutyl]phenyl]-2-[[(3S)-3-methylpiperidin-1-yl]methyl]-1H-pyrrolo[2,3-c]pyridin-7-one] displayed an IC50 of 0.1 to 1 µM. Also, the half-maximal effective concentration (EC50) in assay [2] is 0.1 to 1 µM.

As for `C[C@H]1CCCN(Cc2cc3c(C4CC4)cn(-c4cccc(C5(Cn6cccn6)CC(F)(F)C5)c4)c(=O)c3[nH]2)C1` [Example 124], in assay [1], the IC50 lay within 0.1 to 1 µM. Further, the EC50 in assay [2] lay within 0.1 to 1 µM.

Regarding `Cc1nnc(C2(c3cccc(-n4cc(C5CC5)c5cc(CN6CCC[C@H](C)C6)[nH]c5c4=O)c3)CC(F)(F)C2)n1C` [Example 125, 4-cyclopropyl-6-[3-[1-(4,5-dimethyl-1,2,4-triazol-3-yl)-3,3-difluorocyclobutyl]phenyl]-2-[[(3S)-3-methylpiperidin-1-yl]methyl]-1H-pyrrolo[2,3-c]pyridin-7-one], the IC50 in assay [1] fell in the range of 1 to 5 µM. This compound also yielded an EC50 in assay [2] of 1 to 5 µM.

The values are drawn from US20260028336A1 (Arcus Biosciences, Inc., priority 2022, published 2026).
